Results from patent publication US10646478B2, “Methods for treatment of melanoma” (CHILDREN'S MEDICAL CENTER CORPORATION, priority 2011, dated 2020).

How the values were obtained:
[1] = system: pigmented melanocytes in spt5m806 embryos; assay: Spt5 hypomorphic experiments: pigmentation in spt5m806 incross; type: in vivo, zebrafish; conditions: 3 uM
Source text: This allele has only a mild pigment defect on its own. […] Embryos were scored at 48 hpf for pigmentation, scored as “unpigmented”, “light”, or “fully pigmented” as compared to untreated wells. Individual embryos were then genotyped for the spt5^m806 mutation as previously described^14. Kruskall-Wallis analysis was used to detect a difference between the genotyped groups.

[2] = system: crestin+ neural crest progenitors; assay: In situ hybridization (ISH) for crestin in zebrafish embryos (chemical screen for suppressors of neural crest development); type: in vivo; conditions: for crestin expression by ISH: zebrafish embryos, 50% epiboly to 24 hpf
Protocol: The screen was performed essentially as previously described^31. In brief, WT embryos were collected, staged and then plated at a density of 10 embryos per well in a […] tissue culture plate in 200 ul of E3 water. At 50% epiboly, 100 ul of a 3× chemical stock was added to each well using a Hamilton liquid handling robot, yielding a final 1× concentration. For the majority of the chemicals in the library, this yielded a concentration of ˜33 uM. The libraries used were the BIOMOL 480, Sigma LOPAC 1280, and selected additional compounds obtained through the Children's Hospital Boston Chemical Screening facility. Compounds known to affect pigmentation in Xenopus were obtained from a screen previously described^32, 33. After treatment, embryos were rinsed in E3 water, pronase treated to remove chorions, washed 4× in E3 and 1× in PBT, and then fixed in 4% PFA for 24 hours. Fixed embryos were changed to 100% methanol 24 h later, and kept until the time of ISH.
Embryos underwent automated ISH using a Biolane HTI robot with a crestin riboprobe as previously described^31. All wells were manually scored by eye, assigning a score within a range of 1 (no crestin staining) to 3 (no change in crestin) to 5 (marked increase in crestin). Note was also taken of chemicals that affected migratory patterns in both A-P and D-V directions, and overall morphology. […] All hits were validated in larger, independent clutches of 100-200 embryos using chemicals obtained from independent suppliers.

[3] = system: CYP450 isoenzymes; conditions: parent compound and active metabolite; cited from earlier work
[4] = 100 mg daily for 3 days, then 20 mg per day; cited from earlier work
[5] = system: A375 melanoma cells; assay: In vivo xenograft study of A375 cells in nude mice; design: species or system mouse; conditions: daily i.p.; PLX4720 2.5 mg/kg, Leflunomide 7.5 mg/kg; DMSO 7.4+/−1.3-fold
Protocol: The A375 cell line was chosen for xenografts based on prior experience with PLX4720 in this line. Cells were grown to 60-70% confluence, trypsinized and 3.5×10^5 cells were transplanted into the right flank of nude mice in a volume of 200 ul. […] Tumors were measured with digital calipers on day 4, 7 and 12 and growth rate was compared to the tumor size on day 0. Growth rates were compared between DMSO, PLX, LEF or […] using ANOVA with repeated measures to identify significant interactions. For the day 12 data, differences between the groups were compared using ANOVA followed by posthoc Tukey's least-squared difference.

[6] = system: 5' and 3' transcripts of mitf, dlb, beta-actin; assay: 5'-3' transcriptional elongation assay (qRT-PCR on whole embryos); type: in vivo, zebrafish
Protocol: Primers were designed to the noted genes, situated at the very 5′ end or 3′ end of the gene, situated in the UTR if annotated. qRT-PCR was then performed using SYBR Green, and each primer pair was normalized to an average of the Ct value for the 5′ beta-actin and 3′ beta-actin primers. Fold-change was calculated using the delta-delta Ct method, and all values are expressed relative to the DMSO control, after log 2 transformation. Differences between groups were assessed using t-tests. Primer sequences available upon request.

[7] = 6.5 uM, 24 hpf, relative to DMSO

## Cc1oncc1C(=O)Nc1ccc(C(F)(F)F)cc1 [leflunomide]
[1]; mutant embryos
  embryos with few or no melanocytes, spt5m806 mutant: 99%
[1]; wild type embryos
  embryos with few or no melanocytes, wild type: 0%
[2]; Example III, different concentrations, crestin ISH
  ability to inhibit neural crest development (rank order of effect): approximately the same as compounds 5 and 6
[2]
  crestin expression by ISH: reduction in expression of the neural crest
[2]; listed as Leflunomide
  crestin expression by ISH: phenocopied NSC210627
[3]
  metabolism by CYP450 isoenzymes: Neither the parent compound nor the active metabolite is metabolized by CYP450 isoenzymes
[4]
  steady-state concentration: approximately 60 mcg/mL
[5]
  tumor growth at 12 days post-treatment: 4.7+/−0.12 fold
[6]; [7]
  dlb 3′ transcript abundance: 0.74+/−0.07 fold
  dlb 5′ transcript abundance: 1.13+/−0.14 fold
  mitf 3′ transcript abundance: 0.39+/−0.07 fold
  mitf 5′ transcript abundance: 3.75+/−1.19 fold
[6]; control gene, 6.5 uM, 24 hpf
  beta-actin 3′ transcript abundance: 0.99+/−0.06 fold
  beta-actin 5′ transcript abundance: 1.03+/−0.07 fold
[6]; leflunomide vs. DMSO
  3′ transcription of mitf, pvalb2, her4.2 and dlb: significant decrease in 3′ transcription
